Test results from patent US20250381179A1, “CHROMAN-BASED COMPOUNDS FOR TREATING CANCER” (priority 2024, published 2025).

Experiment: Phase 1 study: safety and tolerability (TEAEs, NCI CTCAE v5.0)
Experimental: The study employed an open-label, 3+3 design, with the option of adding backfill patients to each cohort cleared and deemed safe. […] Tumor responses were assessed every 2 cycles using RECIST v1.1 criteria. […] The study also involves an ongoing dose escalation study where participants receive 100 mg, 200 mg, 300 mg, 400 mg, and 600 mg once daily (QD) dose levels.
Safety was assessed through the analysis of the reported incidence of treatment-emergent AEs. Treatment-emergent AEs are those with an onset on or after the initiation of therapy and will be graded according to NCI CTCAE Version 5.0. Other safety endpoints, including laboratory results, vital signs, and ECG findings, were summarized for all patients in the Safety set.

Question: Which results are given for `O=C1CC[C@H](N2Cc3cc(N4CCN(CC5CCN(c6ccc([C@@H]7c8ccc(O)cc8OC[C@@H]7c7ccccc7)cc6F)CC5)CC4)ccc3C2=O)C(=O)N1` [compound (1-g), (S)-3-(5-(4-((1-(2-fluoro-4-((3S,4R)-7-hydroxy-3-phenylchroman-4-yl)phenyl)piperidin-4-yl)methyl)piperazin-1-yl)-1-oxoisoindolin-2-yl)piperidine-2,6-dione]?
Answer: TEAE: Pneumonia (300 mg QD (N = 11)): 0 n (%); TEAE: Productive Cough (300 mg QD (N = 11)): 0 n (%); TEAE: Rash Maculo-Papular (300 mg QD (N = 11)): 0 n (%); TEAE: Rhinitis Allergic (300 mg QD (N = 11)): 1 (9.1) n (%); TEAE: Rib Fracture (300 mg QD (N = 11)): 0 n (%); TEAE: Seizure (300 mg QD (N = 11)): 0 n (%); TEAE: Sepsis (300 mg QD (N = 11)): 0 n (%); TEAE: Tremor (300 mg QD (N = 11)): 1 (9.1) n (%); TEAE: Upper Respiratory Tract Infection (300 mg QD (N = 11)): 1 (9.1) n (%); TEAE: Urinary Tract Infection (300 mg QD (N = 11)): 1 (9.1) n (%); TEAE: Vaginal Haemorrhage (300 mg QD (N = 11)): 1 (9.1) n (%); TEAE: Vomiting (300 mg QD (N = 11)): 1 (9.1) n (%); related TEAE: Alopecia (300 mg QD (N = 11)): 0 n (%); related TEAE: Arthralgia (300 mg QD (N = 11)): 0 n (%); related TEAE: Constipation (300 mg QD (N = 11)): 1 (9.1) n (%); related TEAE: Diarrhea (300 mg QD (N = 11)): 1 (9.1) n (%); related TEAE: Dysgeusia (300 mg QD (N = 11)): 0 n (%); related TEAE: Eructation (300 mg QD (N = 11)): 0 n (%); related TEAE: Fatigue (300 mg QD (N = 11)): 1 (9.1) n (%); related TEAE: Flatulence (300 mg QD (N = 11)): 0 n (%); related TEAE: Hot Flush (300 mg QD (N = 11)): 2 (18.2) n (%); related TEAE: Hyperhidrosis (300 mg QD (N = 11)): 0 n (%); related TEAE: Nail Disorder (300 mg QD (N = 11)): 0 n (%); related TEAE: Nausea (300 mg QD (N = 11)): 3 (27.3) n (%); related TEAE: Neutrophil Count Decreased (300 mg QD (N = 11)): 0 n (%); related TEAE: Platelet Count Decreased (300 mg QD (N = 11)): 0 n (%); related TEAE: Tremor (300 mg QD (N = 11)): 0 n (%); related TEAE: Vomiting (300 mg QD (N = 11)): 1 (9.1) n (%); Patients with Any Compound (1-g) related TEAE (400 mg QD (N = 6)): 3 (50.0) n (%); Patients with Any TEAE (400 mg QD (N = 6)): 4 (66.7) n (%); TEAE: Abdominal Distension (400 mg QD (N = 6)): 0 n (%); TEAE: Abdominal Pain (400 mg QD (N = 6)): 0 n (%); TEAE: Acute Kidney Injury (400 mg QD (N = 6)): 0 n (%); TEAE: Adrenal Insufficiency (400 mg QD (N = 6)): 0 n (%); TEAE: Alopecia (400 mg QD (N = 6)): 1 (16.7) n (%); TEAE: Anaemia (400 mg QD (N = 6)): 0 n (%); TEAE: Anxiety (400 mg QD (N = 6)): 0 n (%); TEAE: Arthralgia (400 mg QD (N = 6)): 0 n (%); TEAE: Axillary Vein Thrombosis (400 mg QD (N = 6)): 0 n (%); TEAE: Back Pain (400 mg QD (N = 6)): 0 n (%); TEAE: Basal Cell Carcinoma (400 mg QD (N = 6)): 0 n (%); TEAE: Breast Pain (400 mg QD (N = 6)): 0 n (%); TEAE: Confusional State (400 mg QD (N = 6)): 0 n (%); TEAE: Constipation (400 mg QD (N = 6)): 1 (16.7) n (%); TEAE: Cough (400 mg QD (N = 6)): 0 n (%); TEAE: Covid-19 Pneumonia (400 mg QD (N = 6)): 0 n (%); TEAE: Dehydration (400 mg QD (N = 6)): 0 n (%); TEAE: Diarrhoea (400 mg QD (N = 6)): 1 (16.7) n (%); TEAE: Dizziness (400 mg QD (N = 6)): 0 n (%); TEAE: Dysgeusia (400 mg QD (N = 6)): 1 (16.7) n (%); TEAE: Dyspepsia (400 mg QD (N = 6)): 0 n (%); TEAE: Dyspnoea (400 mg QD (N = 6)): 1 (16.7) n (%); TEAE: Dysuria (400 mg QD (N = 6)): 0 n (%); TEAE: Eructation (400 mg QD (N = 6)): 1 (16.7) n (%); TEAE: Fall (400 mg QD (N = 6)): 0 n (%); TEAE: Fatigue (400 mg QD (N = 6)): 2 (33.3) n (%); TEAE: Flatulence (400 mg QD (N = 6)): 1 (16.7) n (%); TEAE: Fracture (400 mg QD (N = 6)): 0 n (%); TEAE: Fungal Infection (400 mg QD (N = 6)): 0 n (%); TEAE: Haematoma (400 mg QD (N = 6)): 0 n (%); TEAE: Hot Flush (400 mg QD (N = 6)): 0 n (%); TEAE: Hyperglycaemia (400 mg QD (N = 6)): 0 n (%); TEAE: Hyperhidrosis (400 mg QD (N = 6)): 0 n (%); TEAE: Hypokalaemia (400 mg QD (N = 6)): 0 n (%); TEAE: Hypotension (400 mg QD (N = 6)): 1 (16.7) n (%); TEAE: Influenza Like Illness (400 mg QD (N = 6)): 0 n (%); TEAE: Insomnia (400 mg QD (N = 6)): 1 (16.7) n (%); TEAE: Lower Respiratory Tract Congestion (400 mg QD (N = 6)): 0 n (%); TEAE: Lymphocyte Count Decreased (400 mg QD (N = 6)): 0 n (%); TEAE: Muscle Spasm (400 mg QD (N = 6)): 1 (16.7) n (%); TEAE: Muscular Weakness (400 mg QD (N = 6)): 1 (16.7) n (%); TEAE: Musculoskeletal Stiffness (400 mg QD (N = 6)): 0 n (%); TEAE: Nail Disorder (400 mg QD (N = 6)): 1 (16.7) n (%); TEAE: Nasal Congestion (400 mg QD (N = 6)): 0 n (%)
